Results published in PubChem BioAssay (NCI).
“And” between values parts separate entries of the source, which are not always exact repeats. Equal values may be shown once.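 Values below derive from 48-hour exposures of cells grown in 96-well plates, with endpoints linearly interpolated between the two concentrations bracketing the appropriate inhibition level. GI50 = concentration required for 50% inhibition of growth. TGI marks complete inhibition of growth.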

What was measured:
Experiment in all cases: NCI tumour cell line growth inhibition, 48 h
SNB-75 CNS = tested on: SNB-75 CNS
UO-31 renal = tested on: UO-31 renal
HS 578T breast = tested on: HS 578T breast
HCC-2998 colon = tested on: HCC-2998 colon
SK-OV-3 ovarian = tested on: SK-OV-3 ovarian
MALME-3M melanoma = tested on: MALME-3M melanoma
HCT-116 colon = tested on: HCT-116 colon
M14 melanoma = tested on: M14 melanoma
SNB-19 CNS = tested on: SNB-19 CNS
SK-MEL-5 melanoma = tested on: SK-MEL-5 melanoma

SMILES | GI50 (SNB-75 CNS) [µM] | TGI (SNB-75 CNS) | GI50 (UO-31 renal) [µM] | TGI (UO-31 renal) | GI50 (HS 578T breast) [µM] | TGI (HS 578T breast) | GI50 (HCC-2998 colon) [µM] | TGI (HCC-2998 colon) | GI50 (SK-OV-3 ovarian) [µM] | TGI (SK-OV-3 ovarian) | GI50 (MALME-3M melanoma) [µM] | TGI (MALME-3M melanoma) | GI50 (HCT-116 colon) [µM] | TGI (HCT-116 colon) | GI50 (M14 melanoma) [µM] | TGI (M14 melanoma) | GI50 (SNB-19 CNS) [µM] | TGI (SNB-19 CNS) | GI50 (SK-MEL-5 melanoma) [µM] | TGI (SK-MEL-5 melanoma)
CC[C@]12C=CCN3CC[C@@]4(c5ccc(OC)cc5N(C)[C@H]4[C@@](O)(C(=O)OC)[C@@H]1OC(=O)CCCN1CCN(CCCC(=O)O[C@@H]4[C@]5(CC)C=CCN6CC[C@@]7(c8ccc(OC)cc8N(C)[C@H]7[C@@]4(O)C(=O)OC)[C@@H]65)CC1)[C@@H]32 | 0.564 | 1.95 µM | 1.1 | 2.33 µM | 1.39 | 3.38 µM | 1.66 | 3.26 µM | 2.07 | 3.63 µM | 1.6 | 3.11 µM | 0.317 | 1.05 µM | 1.87 | 3.61 µM | 1.23 | 2.59 µM | 1.48 | 2.83 µM
CCCCCCCCCCCCOC1C(C(COC2OC(C(O)CO)C3OC(C)(C)OC23)OC(=O)Nc2ccccc2)OC2OC(C)(C)OC21 (stereo not drawn) | 5.2 | 16.9 µM | 9.01 | 23.7 µM | 6.13 | 18.6 µM | 5.39 | 10.4 µM | 15.6 | 30 µM | 9.2 | 23.2 µM | 2.14 | 5.79 µM | 5.12 | 17 µM | 7.35 | 20.3 µM | 8.55 | 25.6 µM
c1cc(OCCCCCOc2cccc(-c3nc4ccccc4[nH]3)c2)cc(-c2nc3ccccc3[nH]2)c1 | 3.4 | > 100 µM |  |  | 2.56 | 8.51 µM | 3.32 | 28 µM | 2.51 | 18.1 µM | 1.87 | 5.02 µM | 2.07 | > 100 µM | 2.57 | > 100 µM | 2.85 | > 100 µM | 1.68 | 3.08 µM
C=C(C)c1nc(Oc2ccccc2)nc(Oc2ccccc2)n1 |  | 24.5 µM |  | 32.1 µM |  | 44.1 µM |  | 8.18 µM |  | 30.3 µM |  | 27.6 µM |  | 10.5 µM |  | 11.3 µM |  | 18.5 µM |  | 27.4 µM
OCc1ccc(N2CCc3ccc(F)cc3C2)cc1Cl | 11.5 | 25.3 µM | 1.52 | 17.3 µM | 15.8 | 48.4 µM | 1.7 | 14.4 µM | 2.71 | 13.6 µM | 12.1 | 26.9 µM | 0.0267 | 11.1 µM | 14.5 | 30 µM | 12.4 | 27 µM | 0.856 | 20 µM
CN(c1ccccc1)c1c2ccccc2nc2[nH]c3ccccc3c12 | 3.04 | 15.1 µM | 1.22 | 3.66 µM | 3.06 | 12.9 µM | 3.05 | 12.1 µM | 3.75 | 14.1 µM | 2.24 | 5.72 µM | 2.89 | 8.72 µM | 2.21 | 4.43 µM | 3.77 | 15.5 µM | 1.62 | 3.56 µM
COc1ccc(-c2c(Nc3ccccn3)nc3c(C4=CCCCC4)c(-c4ccccc4)[nH]n3c2=O)cc1 | 2.99 | 21.6 µM | 2.19 | > 100 µM | 3.32 | 33.1 µM | 3.7 | > 100 µM | 3.44 | 17.5 µM | 3.93 | 60.2 µM | 1.32 | 11.8 µM | 1.23 | > 100 µM | 3.12 | 17.2 µM | 2.67 | > 100 µM
CCOC(=O)C#Cc1c(C(=O)OCC)nnn1[C@@H]1O[C@H](COC)[C@@H](OC)[C@H]1OC | 11.9 | 24.2 µM | 1.88 | 4.38 µM | 23.7 | 72.7 µM | 18 | 32.8 µM | 67.5 | > 100 µM | 1.95 | 3.9 µM | 3.33 | 10.7 µM | 3.27 | 10.8 µM | 69.4 | > 100 µM | 14.3 | 27.4 µM
Cc1cccc(Oc2ccc(Nc3ncnc4ccc(NC(=O)CN(C)C)cc34)cc2Cl)c1 | 2.01 | 5.05 µM | 1.12 | 2.47 µM | 1.81 | 4.33 µM | 1.6 | 3.19 µM | 0.828 | 7.24 µM | 1.72 | 3.35 µM | 1.61 | 3.09 µM | 1.71 | 3.5 µM | 2.11 | 6.35 µM | 1.64 | 3.03 µM
CNCc1cccc2c1OCCOCCOCCNS(=O)(=O)c1ccc(cc1)-c1cnc(N)c(n1)C(=O)N2 | 0.353 | 5.26 µM | 9.82 | 23.1 µM | 0.477 | 3.05 µM | 1.79 | 4.69 µM | 0.543 | 8.01 µM | 1.55 | 3.08 µM | 0.67 | 2.67 µM | 1.31 | 2.71 µM | 2.45 | 9.9 µM | 1.69 | 3.29 µM
N=C(N)SCc1ccc(Cl)c2ccccc12 (tested in a mixture with another compound) |  | 23.1 µM and 19.2 µM |  | 24.3 µM and 26.3 µM |  | 48.1 µM and 53 µM |  | 6.66 µM and 4.89 µM |  | 25.9 µM and 28.9 µM |  | 22.1 µM and 23.4 µM |  | 24.5 µM and 28.2 µM |  | 23.8 µM and 26.5 µM |  | 28.4 µM and 31.6 µM |  | 25.6 µM and 21.6 µM
COc1cc(NC(=O)COc2ccccc2)c(C(N)=O)cc1OC | 0.547 | 11.9 µM | 13.5 | > 100 µM | 0.771 | 26.9 µM | 3.33 | 68.3 µM | 3.58 | 22.7 µM | 4 | > 100 µM | 0.62 | > 100 µM | 0.614 | > 100 µM | 3.31 | 51.9 µM | 0.766 | > 100 µM
